The text below walks through data of paper PMC8116058, “De novo macrocyclic peptides dissect energy coupling of a heterodimeric ABC transporter by multimode allosteric inhibition” (eLife, 2021).

Test [1] concerns TmrAB. Nature of the test: Competition of C4F peptide binding by CP^Bs (fluorescence anisotropy). Further details: species or system Thermus thermophilus. The following applies: C4F 50 nM + TmrAB 4 µM + competitor (CP^B 6 µM or C4^ATTO655 10 µM). The source says:
(§1) To elucidate the mechanistic basis for the inhibition of ATP hydrolysis and substrate transport, we investigated the effects of CPs on substrate binding. In the first approach, fluorescent CP^Fs were used as reporters in fluorescence polarization. […] In addition, we examined the impact of CP^Bs on ATP binding to TmrAB by scintillation proximity assays (SPA) (Figure 4C). […] Taken together, CPs are high-affinity allosteric inhibitors of TmrAB that leave ATP binding and substrate interaction largely unaffected, while impairing ATP hydrolysis and substrate translocation across the membrane.
(§2) Figure 4. […] (A) CP^Fs binding TmrAB is not affected by substrate peptide binding. […] For competition, C4^ATTO655 peptide (2 µM) or R9LQK peptide (200 µM) were added. (B) Binding of C4F peptide is not affected by CP^Bs. C4F peptides (50 nM) were mixed with TmrAB (4 µM), and fluorescence anisotropy was monitored as described in (A). For competition, C4^ATTO655 (10 µM) or CP^Bs (6 µM) were added. […] TmrAB (0.2 µM) were immobilized on SPA beads and incubated with ATP (3 μM, traced with ^3H-ATP) in the presence and absence of CP^Bs (1 µM each) for 30 min on ice. ATP binding was monitored by SPA. Background values were determined after releasing TmrAB complexes from the beads by adding imidazole (200 mM). The background signal in the absence of CP^Bs was set to 0 cpm. […] As this is an equilibrium experiment, this can be rationalized by the fact that CP13 stabilizes the ATP-bound OF conformer. Figure 4—source data 1. Source data for Figure 4.
(§3) To determine equilibrium binding constants, CP^Fs (50 nM) were incubated with increasing concentrations of TmrAB-containing or empty liposomes. To probe the conformational selectivity, CP^Fs (50 nM) were mixed with detergent-solubilized IF TmrAB or OF TmrA^EQB. Before, OF TmrA^EQB was nucleotide-trapped by incubation with ATP (1 mM) and MgCl2 (3 mM) in the absence of CP^Fs for 5 min at 45°C. […] For peptide competition studies, RRYC^fluoresceinKSTEL (C4F, 50 nM) were incubated with detergent-solubilized TmrAB (4 µM), CP^Bs (6 µM), or C4^ATTO655 (10 µM). […] Fluorescence anisotropy was analyzed at λex/em of 485/520 nm using a microplate reader (CLARIOstar, BMG LABTECH). Fluorescence anisotropy was calculated using:(1) r=I||−I⊥/I||+2⋅I⊥ with I||: parallel intensity and I⊥: perpendicular intensity. Binding of CP^Fs were fitted by a one-site binding model (Langmuir 1:1) using:(2) Y=Bmax∙[L]/KD+[L] with Y: binding, Bmax: maximal binding, KD: equilibrium dissociation constant, and [L]: ligand concentration. Data represent mean ± SD from three experiments.

For test [2], the system named is TmrAB. Nature of the test: Competition of CP^F binding by substrate peptides (fluorescence anisotropy). More on the design: species or system Thermus thermophilus.
Source text: as §1, §2, §3
(In general: In fluorescence polarisation assays a small probe gives low polarisation when free and higher when bound to something large.)

The nature of test [3]: Fluorescence anisotropy with empty liposomes (specificity control). The format is binding. Particulars: CP^F 50 nM. How it is done:
In order to analyze the binding affinity and specificity of CPs to TmrAB, we established a fluorescence polarization assay. Fluorescein-labeled CP^Fs were incubated with increasing concentrations of TmrAB reconstituted in liposomes at a protein-to-lipid ratio of 1:20 (w/w). […] To address whether the CPs recognize a linear or non-linear epitope, we examined the binding of CP^Fs after disrupting the quaternary and tertiary structure of TmrAB complexes by adding anionic detergent SDS.
Figure 2. […] (A, B) Equilibrium binding analysis. Fluorescence anisotropy of CP^Fs (50 nM) was determined at λex/em = 485/520 nm with increasing concentrations of TmrAB which was reconstituted in liposomes. TmrAB concentrations were calculated based on the random (50/50%) orientation in proteoliposomes ([Stefan et al., 2020]). As a control, equal amounts of empty liposomes were added to CP^Fs (dashed lines, open symbols). The difference in fluorescence polarization was normalized to free (0%) and 100% bound CP^F. Mean values ± SD (n = 3) are shown, and data were analyzed by a one-site binding model. […] Streptavidin beads loaded with CP14^B (1 µM) were mixed with purified TmrAB (60 nM) for 1 hr at 4°C. Beads were washed and bound TmrAB was eluted by adding SDS loading buffer for 10 min at 95°C. Amounts of TmrA in input (I), flow-through (FT), wash fraction (W), and eluate (E) were analyzed by SDS-PAGE and immunoblotting (α-His). Beads without CP^B served as negative control (right panel). (D) One-step purification of TmrAB via immobilized CP14^B matrices. Streptavidin-agarose beads were loaded with CP14^B (1 µM) and mixed with DDM-solubilized membranes of E. coli containing TmrAB as described in (C). Bound TmrAB was eluted in SDS loading buffer and analyzed by SDS-PAGE (silver stain). (E) Native mass spectrometry. TmrAB (4 µM) was buffer exchanged to ESI buffer and incubated with a 2-fold molar excess of CP14^F for 10 min on ice. Protein complexes were investigated by ESI-TOF-mass spectrometry. […] Figure 2—source data 1. Source data for Figure 2. Figure 2—figure supplement 1. […] (A) CP^Bs-mediated isolation of solubilized TmrAB. Streptavidin matrices were loaded with CP^Bs (1 µM) and incubated with purified TmrAB (60 nM) for 1 hr at 4°C. Beads without CP^Bs served as control (see Figure 2C). Bound TmrAB complexes were eluted by the addition of SDS loading buffer for 10 min at 95°C. TmrAB in input (I), flow-through (FT), washing fraction (W), and eluate (E) was analyzed by SDS-PAGE and immunoblotting (α-His). […] Bound TmrAB complexes were eluted in SDS loading buffer and analyzed by SDS-PAGE (silver stain). […] CP^F-TmrAB complexes were analyzed by gel filtration. […] Fluorescence anisotropy was determined at λex/em = 485/520 nm. […]

The mark [4] stands for this setting: CP^F 50 nM + TmrAB + competitor C4^ATTO655 peptide 2 µM.
[5] abbreviates: CP^F 50 nM + TmrAB + competitor R9LQK peptide 200 µM.
Where [6] appears, read: listed as -: CP^F 50 nM before addition of TmrAB.
Setting [7] is: listed as TmrAB: CP^F 50 nM + TmrAB 0.5-0.7 µM, no competitor.

Positions of bridges follow the written chain, without caps; N, C: chain ends. Non-standard residues stand in square brackets, D forms with d. Residues, ends and D or L forms follow the SMILES beside them. *: point of attachment. 5FAM = O=C1OC2(c3ccc(O)cc3Oc3cc(O)ccc32)c2ccc(C(=O)*)cc21; βAla = NCCC(=O)O

For `CC(C)C[C@@H]1NC(=O)[C@H](Cc2ccccc2)NC(=O)CNC(=O)[C@H](CO)NC(=O)[C@H](Cc2ccccc2)NC(=O)[C@H](CC(=O)O)NC(=O)[C@@H]2CCCN2C(=O)[C@H]([C@@H](C)O)NC(=O)[C@@H](Cc2ccc(O)cc2)NC(=O)CSC[C@@H](C(=O)NCC(=O)N[C@@H](CO)C(=O)NCCC(=O)NCCC(=O)N[C@@H](CCCNC(=N)N)C(=O)N[C@@H](CCCCNC(=O)c2ccc3c(c2)C(=O)OC32c3ccc(O)cc3Oc3cc(O)ccc32)C(N)=O)NC(=O)[C@H](C)NC(=O)[C@H](CC(N)=O)NC(=O)[C@H](CCCNC(=N)N)NC(=O)[C@H](CC(C)C)NC(=O)[C@H](Cc2ccccc2)NC(=O)[C@H](C)NC1=O` [CP12] ({CH2CO}-[dY]TPDFSGFLAFLRNACGS[βAla][βAla]RK(5FAM)-NH2; thioether N-16), the “Bound C4F peptide, fluorescence anisotropy” value (shortened to “Bound C4F peptide”) in test [1] was determined as 0.128. For the same molecule, the “Bound CP^F, fluorescence anisotropy” value in test [2] (setting [4]) worked out at 0.160; in test [2] (setting [5]), 0.155; in test [2] (setting [6]) it was 0.025; in test [2] (setting [7]), 0.168. The “Bound CP^F” value in test [3] (amount equal to 0.5000 µM) was -0.19%.
For `CC[C@H](C)[C@@H]1NC(=O)[C@H]([C@@H](C)O)NC(=O)[C@H](CC(C)C)NC(=O)[C@H](Cc2c[nH]c3ccccc23)NC(=O)[C@H](Cc2ccccc2)NC(=O)[C@H](CC(N)=O)NC(=O)[C@H](CCC(=O)O)NC(=O)[C@H](CC(C)C)NC(=O)[C@H](CS)NC(=O)[C@H](Cc2c[nH]cn2)NC(=O)[C@H](CO)NC(=O)[C@@H](Cc2ccc(O)cc2)NC(=O)CSC[C@@H](C(=O)NCC(=O)N[C@@H](CO)C(=O)NCCC(=O)NCCC(=O)N[C@@H](CCCNC(=N)N)C(=O)N[C@@H](CCCCNC(=O)c2ccc3c(c2)C(=O)OC32c3ccc(O)cc3Oc3cc(O)ccc32)C(N)=O)NC(=O)[C@H](CC(C)C)NC1=O` [CP6] ({CH2CO}-[dY]SHCLENFWLTILCGS[βAla][βAla]RK(5FAM)-NH2; thioether N-14), in test [1], the “Bound C4F peptide” value is given as 0.124. The “Bound CP^F, fluorescence anisotropy” value in test [2] (setting [4]) is 0.109; in test [2] (setting [5]), 0.101; in test [2] (setting [6]) it was 0.022; in test [2] (setting [7]) it was 0.111. The “Bound CP^F” value in test [3] (amount equal to 0.5000 µM) was -6.19%.
Consider `CC(C)[C@@H]1NC(=O)[C@H](Cc2ccccc2)NC(=O)[C@@H]2CCCN2C(=O)[C@H](CC(N)=O)NC(=O)[C@H](Cc2c[nH]c3ccccc23)NC(=O)[C@H](C(C)C)NC(=O)[C@H](Cc2ccc(O)cc2)NC(=O)[C@H](Cc2ccccc2)NC(=O)[C@@H](Cc2ccc(O)cc2)NC(=O)CSC[C@@H](C(=O)NCC(=O)N[C@@H](CO)C(=O)NCCC(=O)NCCC(=O)N[C@@H](CCCNC(=N)N)C(=O)N[C@@H](CCCCNC(=O)c2ccc3c(c2)C(=O)OC32c3ccc(O)cc3Oc3cc(O)ccc32)C(N)=O)NC(=O)[C@H](CCCCN)NC(=O)[C@H](Cc2ccccc2)NC1=O` [CP14] ({CH2CO}-[dY]FYVWNPFVFKCGS[βAla][βAla]RK(5FAM)-NH2; thioether N-12; C-terminus assumed), for which, in test [1], the “Bound C4F peptide” value is on record as 0.136. Besides, the “Bound CP^F, fluorescence anisotropy” value was found to be 0.143 in test [2] (setting [4]), 0.140 in test [2] (setting [5]), 0.027 in test [2] (setting [6]) and 0.141 in test [2] (setting [7]). Further, the “Bound CP^F” value in test [3] (amount equal to 0.2500 µM) is on record as -5.24%.
Consider `CC[C@H](C)[C@@H]1NC(=O)[C@H](Cc2c[nH]c3ccccc23)NC(=O)[C@H](CC(N)=O)NC(=O)[C@H](C)NC(=O)[C@H](CO)NC(=O)[C@@H]2CCCN2C(=O)[C@H](CC(=O)O)NC(=O)[C@@H](Cc2ccc(O)cc2)NC(=O)CSC[C@@H](C(=O)NCC(=O)N[C@@H](CO)C(=O)NCCC(=O)NCCC(=O)N[C@@H](CCCNC(=N)N)C(=O)N[C@@H](CCCCNC(=O)c2ccc3c(c2)C(=O)OC32c3ccc(O)cc3Oc3cc(O)ccc32)C(N)=O)NC(=O)[C@H]([C@@H](C)O)NC(=O)[C@H](CC(C)C)NC(=O)[C@H](CC(C)C)NC(=O)[C@H](C(C)C)NC(=O)[C@H](CC(C)C)NC1=O` [CP13] ({CH2CO}-[dY]DPSANWILVLLTCGS[βAla][βAla]RK(5FAM)-NH2; thioether N-14; C-terminus assumed), for which, in test [1], the “Bound C4F peptide” value stood at 0.141. The “Bound CP^F, fluorescence anisotropy” value in test [2] (setting [4]) is on record as 0.122; in test [2] (setting [5]), 0.123; in test [2] (setting [6]) it was 0.025; in test [2] (setting [7]), 0.127. In addition, the “Bound CP^F” value in test [3] (amount equal to 0.2500 µM) is listed as 3.65%.
